From patent publication US7892776B2, “Screening assay to identify modulators of protein kinase A” (The Regents of the University of California, priority 2007, dated 2011)
No end group written: not given here.

Key:
type Iα PKA holoenzyme = target: T1, type Iα PKA holoenzyme (Bos taurus, UniProt P00514); test: High throughput FP assay format (TR-IP20, C-subunit, R-subunit, cGMP); type: binding; settings: for HTS result (agonist / antagonist by FP reading versus 3 μM cGMP alone): tested at 25 μM, 40 nM TR-IP20; for reduction in FP signal due to competition with ATP: HTS format, compound at 200 μM, 2 mM ATP
T1 construct: made in house; host or cells: E. coli
T1 sequence (P00514 with tags, fused parts or gaps): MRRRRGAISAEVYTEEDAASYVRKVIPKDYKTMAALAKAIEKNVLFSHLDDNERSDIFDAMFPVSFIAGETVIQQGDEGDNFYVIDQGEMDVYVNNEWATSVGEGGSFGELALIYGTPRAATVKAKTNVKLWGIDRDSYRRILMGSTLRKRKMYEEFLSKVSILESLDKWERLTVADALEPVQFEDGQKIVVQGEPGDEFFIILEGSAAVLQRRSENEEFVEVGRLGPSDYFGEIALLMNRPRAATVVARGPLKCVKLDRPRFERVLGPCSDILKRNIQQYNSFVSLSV
Experimental: The high throughput screening (HTS) was performed by addition of 1 μL of a test compound in DMSO to 49 μL buffer containing TR-IP20, C-subunit, R-subunit, and cGMP.
An agonistic Z′-factor was calculated between the half maximal and maximal FP response, while the antagonistic Z′-factor was calculated between the minimal and half maximal FP response. The maximal FP response was calculated by adding 1 μL cGMP in DMSO (500 μM final) to 49 μL HTS mix. Half maximal binding was calculated when 1 μL DMSO was used instead and minimal FP response was calculated by adding 1 μL Rp-8-Br-cAMPS in DMSO (50 μM final). Final DMSO concentration was 2%.
Antagonism by Rp-8-Br-cAMPS was measured with the HTS format.
Finally, to validate the assay, screening was performed on a selection of nucleotide and xanthine derivatives. […] Included in Set 1 are the known PKA effectors 8-Cl-cAMP (agonist) and Rp-8-Br-cAMPS (antagonist).

PKA C-subunit = PKA C-subunit (Homo sapiens, UniProt P17612); settings: cited from earlier work
[1] = target: C-subunit of protein kinase A (Mus musculus, UniProt P05132, C200A); test: biochemical

Molecule | HTS result (agonist / antagonist by FP reading versus 3 μM cGMP alone) (type Iα PKA holoenzyme) | reduction in FP signal due to competition with ATP (type Iα PKA holoenzyme) | other results
Nc1ncnc2c1nc(Cl)n2[C@@H]1O[C@@H]2COP(=O)(O)O[C@H]2[C@H]1O [8-Cl-cAMP] | agonist | – | –
Nc1ncnc2c1ncn2[C@@H]1O[C@H](COP(=O)(O)OP(=O)(O)OP(=O)(O)O)[C@@H](O)[C@H]1O [ATP] | – | – | enhancement of the affinity of the C-subunit for ATP (PKA C-subunit; in the presence of the R-subunit or IP20, literature (Lew et al. 1997)): over 2000 fold; Kd (PKA C-subunit; read-out: affinity of ATP for the PKA C-subunit): ~25 µM
O=S(=O)(NCCNCC=Cc1ccc(Br)cc1)c1cccc2cnccc12 [H89, N-[2-(p-bromocinnamylamino)ethyl]-5-isoquinolinesulfonamide] | – | no reduction in FP signal | –
Nc1ncnc2c1nc(Br)n2C1OC2COP(O)(=S)OC2C1O (stereo not shown) [Rp-8-Br-cAMPS] | antagonist | – | –
CN[C@@H]1C[C@H]2O[C@@](C)([C@@H]1OC)n1c3ccccc3c3c4c(c5c6ccccc6n2c5c31)C(=O)NC4 [staurosporine] | – | no reduction in FP signal | –
GRTGRRNAIHD-NH2 [PKI (14-24)] | – | – | IC50 [1]: 2.7 µM
